Reference: PubChem BioAssay (NCI)
Values joined by “and” are separate entries in the source; they are usually repeats but may differ in a detail not shown here. Identical values can stand only once.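 Results reflect a 48-hour exposure of cells in 96-well plates to compound at five concentrations. Abbreviation: GI50, concentration required for 50% inhibition of growth. Definition used: TGI = concentration required for complete inhibition of growth.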

Tests used:
Test in all cases: NCI-60 cell line screen, 48 h
[1] = system: LOX IMVI melanoma
[2] = system: RXF 393 renal
[3] = system: SK-MEL-2 melanoma
[4] = system: OVCAR-8 ovarian
[5] = system: UO-31 renal
[6] = system: SF-539 CNS
[7] = system: NCI/ADR-RES ovarian
[8] = system: MALME-3M melanoma
[9] = system: SR leukemia
[10] = system: HT29 colon
[11] = system: SK-MEL-5 melanoma
[12] = system: HS 578T breast
[13] = system: MOLT-4 leukemia
[14] = system: M14 melanoma
[15] = system: CAKI-1 renal
[16] = system: NCI-H226 lung
[17] = system: HCT-116 colon
[18] = system: HOP-92 NSCLC
[19] = system: UACC-257 melanoma
[20] = system: OVCAR-3 ovarian
[21] = system: HCC-2998 colon
[22] = system: PC-3 prostate
[23] = system: A549 NSCLC
[24] = system: DU-145 prostate
[25] = system: SF-268 CNS
[26] = system: KM12 colon
[27] = system: SNB-19 CNS
[28] = system: SW-620 colon
[29] = system: MDA-MB-231 breast
[30] = system: NCI-H522 lung
[31] = system: MCF7 breast
[32] = system: COLO 205 colon
[33] = system: 786-0 renal
[34] = system: UACC-62 melanoma
[35] = system: SNB-75 CNS
[36] = system: TK-10 renal
[37] = system: MDA-N
[38] = system: RPMI-8226 leukemia
[39] = system: A498 renal
[40] = system: OVCAR-5 ovarian
[41] = system: SK-OV-3 ovarian
[42] = system: OVCAR-4 ovarian
[43] = system: SF-295 CNS
[44] = system: NCI-H23 lung
[45] = system: MDA-MB-435
[46] = system: CCRF-CEM leukemia
[47] = system: IGROV1 ovarian
[48] = system: U251 CNS
[49] = system: HL-60(TB) leukemia
[50] = system: ACHN renal
[51] = system: SK-MEL-28 melanoma
[52] = system: EKVX NSCLC
[53] = system: HCT-15 colon
[54] = system: SN12C renal
[55] = system: HOP-62 NSCLC
[56] = system: BT-549 breast
[57] = system: NCI-H460 lung
[58] = system: T-47D breast
[59] = system: K-562 leukemia

## S=C(N/N=C(/c1ccccc1)c1ccccn1)Nc1cccc(Cl)c1
[1]
  GI50: 0.729 µM
  TGI: 3.72 µM and > 34 µM
[2]
  TGI: 2.51 µM and 3.86 µM
[3]
  GI50: 0.0753 µM
  TGI: 2.87 µM
[4]
  GI50: 0.0258 µM
  TGI: 2.87 µM
[5]
  GI50: 1.51 µM
  TGI: 3.34 µM and 4.99 µM
[6]
  GI50: 1.12 µM
  TGI: 2.97 µM and 5.99 µM
[7]
  GI50: 0.0619 µM
  TGI: 4.38 µM
[8]
  GI50: 0.0169 µM
  TGI: 2.22 µM and 5.37 µM
[9]
  GI50: 0.00413 µM
[10]
  GI50: 0.662 µM and 0.0738 µM
  TGI: 11.9 µM
[11]
  GI50: 0.358 µM
  TGI: 1.46 µM and 4.08 µM
[12]
  GI50: 0.0125 µM
[13]
  GI50: 0.00303 µM
[14]
  GI50: 0.0154 µM
  TGI: 2.24 µM and 1.89 µM
[15]
  GI50: 0.832 µM
  TGI: 8.78 µM and 6.33 µM
[16]
  GI50: 0.219 µM
  TGI: 1.64 µM and 4.2 µM
[17]
  GI50: 0.00475 µM
  TGI: 1.91 µM and 1.76 µM
[18]
  GI50: 1.65 µM
  TGI: 13 µM
[19]
  GI50: 0.00172 µM
[20]
  GI50: < 0.001 µM
  TGI: 1.98 µM and 4.59 µM
[21]
  GI50: 2 µM
  TGI: 5.04 µM and 5.92 µM
[22]
  GI50: 0.0264 µM
  TGI: 7.05 µM and 6.71 µM
[23]
  GI50: 1.82 µM
  TGI: 5.56 µM and 7.58 µM
[24]
  GI50: 2.97 µM
  TGI: 9.43 µM
[25]
  GI50: 2.33 µM
  TGI: 16.6 µM
[26]
  GI50: 0.144 µM
  TGI: 3.55 µM and 6.75 µM
[27]
  GI50: 0.786 µM
  TGI: 15.3 µM
[28]
  GI50: 0.0444 µM
  TGI: 2.88 µM and 5.77 µM
[29]
  TGI: 2.27 µM
[30]
  GI50: 1.12 µM
  TGI: 2.4 µM
[31]
  GI50: 0.00544 µM
  TGI: 0.918 µM and 6.01 µM
[32]
  GI50: 0.0168 µM
  TGI: 2.2 µM and 21.6 µM
[33]
  GI50: 0.675 µM
  TGI: 2.51 µM and 5.56 µM
[34]
  TGI: 0.793 µM and 2.66 µM
[35]
  GI50: 0.608 µM
  TGI: 2.92 µM and 4.88 µM
[36]
  GI50: 0.0277 µM
  TGI: 2.41 µM and 6 µM
[37]
  GI50: 1.14 µM
  TGI: 7.35 µM and 6.85 µM
[38]
  GI50: 0.00601 µM
[39]
  GI50: 0.195 µM
  TGI: 1.72 µM and 6.29 µM
[40]
  GI50: 0.05 µM
  TGI: 4.47 µM
[41]
  GI50: 0.0671 µM
  TGI: 2.93 µM and 3.73 µM
[42]
  GI50: 1.1 µM
  TGI: 3.67 µM and 15.9 µM
[43]
  GI50: 0.968 µM
  TGI: 5.36 µM and 5.17 µM
[44]
  GI50: 1.35 µM
  TGI: 5.58 µM and 16.8 µM
[45]
  GI50: 1.09 µM
  TGI: 2.95 µM and 4.56 µM
[46]
  GI50: < 0.001 µM
  TGI: 0.0383 µM
[47]
  GI50: 0.28 µM
  TGI: 2.03 µM and 6.68 µM
[48]
  GI50: 0.0513 µM
  TGI: 2.91 µM and 4.58 µM
[49]
  GI50: 0.0152 µM
  TGI: 0.162 µM
[50]
  TGI: 4.6 µM and 5.42 µM
[51]
  GI50: 2.09 µM
  TGI: 7.69 µM and 6.18 µM
[52]
  GI50: 0.433 µM
  TGI: 1.88 µM and 4.7 µM
[53]
  GI50: 0.142 µM
  TGI: 5.06 µM
[54]
  TGI: 6.07 µM
[55]
  GI50: 2.26 µM
  TGI: 4.18 µM and 17.7 µM
[56]
  TGI: 6.22 µM
[57]
  GI50: 0.612 µM
  TGI: 4.69 µM
[58]
  GI50: 0.56 µM

## CNC1C(OC2C(OC3C(O)C(O)C(O)C(O)C3O)OC(C)C2(O)CO)OC(CO)C(O)C1O (configuration not stated) (tested in a mixture with another compound)
[1]
  TGI: > 100 µM
[2]
  TGI: > 100 µM
[3]
  TGI: > 100 µM
[4]
  TGI: > 100 µM
[5]
  TGI: > 100 µM
[6]
  TGI: > 100 µM
[7]
  TGI: > 100 µM
[8]
  TGI: > 100 µM
[9]
  TGI: > 100 µM
[10]
  TGI: > 100 µM
[11]
  TGI: > 100 µM
[12]
  TGI: > 100 µM
[13]
  TGI: > 100 µM
[14]
  TGI: > 100 µM
[16]
  TGI: > 100 µM
[17]
  TGI: > 100 µM
[18]
  TGI: > 100 µM
[19]
  TGI: > 100 µM
[20]
  TGI: > 100 µM
[21]
  TGI: > 100 µM
[22]
  TGI: > 100 µM
[23]
  TGI: > 100 µM
[24]
  TGI: > 100 µM
[25]
  TGI: > 100 µM
[26]
  TGI: > 100 µM
[27]
  TGI: > 100 µM
[28]
  TGI: > 100 µM
[29]
  TGI: > 100 µM
[30]
  TGI: > 100 µM
[31]
  TGI: > 100 µM
[32]
  TGI: > 100 µM
[33]
  TGI: > 100 µM
[34]
  TGI: > 100 µM
[35]
  TGI: > 100 µM
[36]
  TGI: > 100 µM
[37]
  TGI: > 100 µM
[38]
  TGI: > 100 µM
[39]
  TGI: > 100 µM
[40]
  TGI: > 100 µM
[59]
  TGI: > 100 µM
[41]
  TGI: > 100 µM
[42]
  TGI: > 100 µM
[43]
  TGI: > 100 µM
[44]
  TGI: > 100 µM
[45]
  TGI: > 100 µM
[46]
  TGI: > 100 µM
[47]
  TGI: > 100 µM
[48]
  TGI: > 100 µM
[49]
  TGI: > 100 µM
[50]
  TGI: > 100 µM
[51]
  TGI: > 100 µM
[52]
  TGI: > 100 µM
[53]
  TGI: > 100 µM
[54]
  TGI: > 100 µM
[55]
  TGI: > 100 µM
[56]
  TGI: > 100 µM
[57]
  TGI: > 100 µM
[58]
  TGI: > 100 µM

## COC(=O)c1scc(N)c1-n1ccc(=O)[nH]c1=O
[1]
  TGI: > 100 µM
[2]
  TGI: > 100 µM
[3]
  TGI: > 100 µM
[4]
  TGI: > 100 µM
[5]
  TGI: > 100 µM
[6]
  TGI: > 100 µM
[7]
  TGI: > 100 µM
[8]
  TGI: > 100 µM
[9]
  TGI: > 100 µM
[10]
  TGI: > 100 µM
[11]
  TGI: > 100 µM
[12]
  TGI: > 100 µM
[13]
  TGI: > 100 µM
[14]
  TGI: > 100 µM
[15]
  TGI: > 100 µM
[16]
  TGI: > 100 µM
[17]
  TGI: > 100 µM
[18]
  TGI: > 100 µM
[19]
  TGI: > 100 µM
[21]
  TGI: > 100 µM
[22]
  TGI: > 100 µM
[23]
  TGI: > 100 µM
[24]
  TGI: > 100 µM
[25]
  TGI: > 100 µM
[26]
  TGI: > 100 µM
[27]
  TGI: > 100 µM
[28]
  TGI: > 100 µM
[29]
  TGI: > 100 µM
[30]
  TGI: > 100 µM
[31]
  TGI: > 100 µM
[32]
  TGI: > 100 µM
[33]
  TGI: > 100 µM
[34]
  TGI: > 100 µM
[35]
  TGI: > 100 µM
[36]
  TGI: > 100 µM
[37]
  TGI: > 100 µM
[38]
  TGI: > 100 µM
[39]
  TGI: > 100 µM
[40]
  TGI: > 100 µM
[59]
  TGI: > 100 µM
[42]
  TGI: > 100 µM
[44]
  TGI: > 100 µM
[45]
  TGI: > 100 µM
[46]
  TGI: > 100 µM
[47]
  TGI: > 100 µM
[48]
  TGI: > 100 µM
[49]
  TGI: > 100 µM
[50]
  TGI: > 100 µM
[51]
  TGI: > 100 µM
[52]
  TGI: > 100 µM
[53]
  TGI: > 100 µM
[54]
  TGI: > 100 µM
[56]
  TGI: > 100 µM
[57]
  TGI: > 100 µM
[58]
  TGI: > 100 µM
